Assay results as given in ChEMBL document CHEMBL5352394, “Development of fluorizoline analogues as prohibitin ligands that modulate C-RAF signaling, p21 expression and melanogenesis” (Eur J Med Chem, 2022).
Active and inactive are the calls of the source. The calls are words filed in the database; no cut-off is given here.

Assays:
[1] = target: RAF proto-oncogene serine/threonine-protein kinase (Homo sapiens) (UniProt P04049); assay: Inhibition of C-RAF phosphorylation at Ser 338 residue in human HeLa cells at 10 uM preincubated with compound for 1 hr and followed by EGF stimulation for 30 mins by Western blot analysis; format: cell-based
[2] = target: Dual specificity mitogen-activated protein kinase kinase 1 (Homo sapiens) (UniProt Q02750); assay: Inhibition of MEK1 phosphorylation in human HeLa cells at 10 uM preincubated for 1 hr and followed by EGF stimulation for 30 mins by Western blot analysis; format: cell-based
HBL = assay: Induction of pigmentation in human HBL cells assessed as melanogenesis at 0.1 to 10 uM by microscopic analysis; format: functional, cell-based; conditions: dose 0.1-10 µM
HeLa = assay: Cytotoxicity against human HeLa cells assessed as reduction in cell viability measured after 24 hrs by MTT assay; format: functional, cell-based; conditions: dose 1.25-10 µM
MCF7 [3] = assay: Upregulation of p21 expression in human MCF7 cells at 1 uM incubated for 72 hrs by Western blot analysis; format: functional, cell-based
MCF7 [4] = assay: Antiproliferative activity against human MCF7 cells assessed as reduction in cell viability at 1 uM incubated for 72 hrs by trypan blue exclusion assay; format: functional, cell-based
MCF7 [5] = assay: Antiproliferative activity against human MCF7 cells transfected with p21 siRNA assessed as reduction in cell viability at 1 uM incubated for 48 hrs by tryphan blue dye exclusion analysis; format: functional, cell-based

Sequence of Dual specificity mitogen-activated protein kinase kinase 1 (Homo sapiens) (Q02750 whole entry): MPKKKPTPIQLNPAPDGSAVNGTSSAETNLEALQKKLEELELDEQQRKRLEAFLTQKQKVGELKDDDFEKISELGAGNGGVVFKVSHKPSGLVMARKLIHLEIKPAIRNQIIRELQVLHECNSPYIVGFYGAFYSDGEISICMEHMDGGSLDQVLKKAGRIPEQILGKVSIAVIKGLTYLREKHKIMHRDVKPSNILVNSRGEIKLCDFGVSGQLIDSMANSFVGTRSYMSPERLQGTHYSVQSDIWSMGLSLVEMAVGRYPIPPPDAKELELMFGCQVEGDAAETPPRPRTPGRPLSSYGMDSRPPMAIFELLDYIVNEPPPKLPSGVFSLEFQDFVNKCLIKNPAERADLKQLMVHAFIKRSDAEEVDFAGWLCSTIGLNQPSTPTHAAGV
Sequence of RAF proto-oncogene serine/threonine-protein kinase (Homo sapiens) (P04049 whole entry): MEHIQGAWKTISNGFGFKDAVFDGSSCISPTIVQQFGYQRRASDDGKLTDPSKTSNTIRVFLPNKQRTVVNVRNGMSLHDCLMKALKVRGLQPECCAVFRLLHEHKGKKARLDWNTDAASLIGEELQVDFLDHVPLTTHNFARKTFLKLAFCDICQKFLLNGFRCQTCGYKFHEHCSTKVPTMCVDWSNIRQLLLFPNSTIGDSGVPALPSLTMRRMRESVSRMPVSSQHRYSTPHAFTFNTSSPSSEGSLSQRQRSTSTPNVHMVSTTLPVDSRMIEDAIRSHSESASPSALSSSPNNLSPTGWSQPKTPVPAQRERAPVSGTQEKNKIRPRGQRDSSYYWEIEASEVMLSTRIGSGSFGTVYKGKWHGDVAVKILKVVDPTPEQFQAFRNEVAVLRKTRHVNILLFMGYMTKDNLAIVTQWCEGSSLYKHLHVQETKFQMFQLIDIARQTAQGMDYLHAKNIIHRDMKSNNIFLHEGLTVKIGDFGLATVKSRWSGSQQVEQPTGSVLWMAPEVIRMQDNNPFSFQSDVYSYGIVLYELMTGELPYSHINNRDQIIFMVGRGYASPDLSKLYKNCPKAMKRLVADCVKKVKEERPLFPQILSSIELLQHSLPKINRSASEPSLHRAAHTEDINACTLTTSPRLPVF

Row | SMILES | inhibition [1] | inhibition [2] | Activity (HBL) | Activity (HeLa) | Activity (MCF7 [3]) | Activity (MCF7 [4]) | Activity (MCF7 [5])
1 | CC1(F)N=C(c2ccc(Cl)cc2)SC1(F)c1ccc(Cl)cc1 (stereo not drawn) | inactive | Active |  |  |  |  | 
2 | FC1(F)N=C(c2ccccn2)SC1(F)c1ccccc1 (stereo not drawn) | Active |  | Active |  |  |  | 
3 | FC1(F)N=C(c2ccc(Br)cc2)SC1(F)c1ccc(Cl)cc1 (stereo not drawn) | Active |  | Active | Dose-Dependent Effect | Active | Active | 
4 | FC1(F)N=C(c2ncccn2)SC1(F)c1ccc(Cl)cc1 (stereo not drawn) | Active | Active | Active |  |  |  | 
5 | FC1(F)N=C(c2ccc(Cl)cc2)SC1(F)c1ccc(Cl)cc1 (stereo not drawn) |  |  | Active | Dose-Dependent Effect |  |  | 
6 | Cc1ccc(C2(F)SC(c3ccc(Cl)cc3)=NC2(F)F)cc1 (stereo not drawn) | Active | Active | Active | Dose-Dependent Effect |  |  | 
7 | FC1(F)N=C(c2ccccn2)SC1(F)c1ccc(Cl)cc1 (stereo not drawn) | Active | Active | Active |  |  |  | 
8 | FC1(F)N=C(c2cnccn2)SC1(F)c1ccc(Cl)cc1 (stereo not drawn) | inactive | inactive | Active |  | Active | Active | inactive
9 | O=C(c1ccccc1)c1ccc(C2=NC(F)(F)C(F)(c3ccc(Cl)cc3)S2)cc1 (stereo not drawn) | Active |  | Active |  |  |  | 
10 | FC1(F)N=C(c2ccc(Cl)cn2)SC1(F)c1ccc(Cl)cc1 (stereo not drawn) | Active | inactive | Active | Dose-Dependent Effect |  |  | 
11 | FC1(F)SC(c2ccc(Cl)cc2)=NC1(F)c1ccc(Cl)cc1 (stereo not drawn) | inactive | inactive | Active |  | inactive | inactive | 
12 | Cc1ccc(C2(F)SC(c3ccccc3)=NC2(F)F)cc1 (stereo not drawn) | inactive | inactive | Active | Dose-Dependent Effect |  |  | inactive
